In brackets after ≈: the same amount, converted by molar mass. *1 amine or outer side, *2 acyl side, *3 side chain or, on linkers, in order; H or OH if unused. Where a SMILES comes first, the peptide text is derived from it. [ ]: non-standard residue; d: D form. The star is where a group is joined. Orn(α-tetramethylguanidino) = CN(C)C(=N[C@@H](CCCN)C(=O)*)N(C)C; X3 = O=C([C@@H]1CCCN1C(=S)[C@@H]1CCCN1[*:1])[*:2]; Hyp = O=C(O)[C@@H]1C[C@@H](O)CN1; hArg = N=C(N)NCCCC[C@H](N)C(=O)O; Cha = N[C@@H](CC1CCCCC1)C(=O)O; Cit = NC(=O)NCCC[C@H](N)C(=O)O; Leu(ol) = CC(C)C[C@H](N)CO
What was measured:
Escherichia coli [1] = test: Antibacterial activity against Escherichia coli BL21 assessed as bacterial growth inhibition by broth microdilution assay; assay type: functional
Escherichia coli [2] = test: Potency index, ratio of Api-137 MIC to test compound MIC for antibacterial activity against Escherichia coli BL21 assessed as bacterial growth inhibition by broth microdilution assay; assay type: functional

| SMILES | MIC (Escherichia coli [1]) [µM] | Ratio (Escherichia coli [2]) |
| --- | --- | --- |
| CC[C@H](C)[C@H](NC(=O)[C@H](Cc1ccc(O)cc1)NC(=O)[C@@H](NC(=O)[C@@H]1CCCN1C(=O)[C@H](CCCNC(=N)N)NC(=O)[C@H](CC(N)=O)NC(=O)[C@H](CC(N)=O)NC(=O)[C@H](CCCN)N=C(N(C)C)N(C)C)C(C)C)C(=O)N1CCC[C@H]1C(=O)N[C@@H](CCCNC(=N)N)C(=O)N1CCC[C@H]1C(=O)N[C@@H](CCCNC(=N)N)C(=O)N1CCC[C@H]1C(=O)N1CCC[C@H]1C(=O)N[C@@H](Cc1c[nH]c2ccccc12)C(=O)N1CCC[C@H]1C(=O)N[C@@H](CCCNC(=N)N)C(=O)N[C@@H](CC(C)C)C(=O)O ({Orn(α-tetramethylguanidino)}-NNRPVYIPRPRPPWPRL-OH) | 1.2 (≈ 2.81 µg/mL) | 8 |
| CC[C@H](C)[C@H](NC(=O)[C@H](Cc1ccc(O)cc1)NC(=O)[C@@H](NC(=O)[C@@H]1CCCN1C(=O)[C@H](CCCNC(=N)N)NC(=O)[C@H](CC(N)=O)NC(=O)[C@H](CC(N)=O)NC(=O)[C@H](CCCN)N=C(N(C)C)N(C)C)C(C)C)C(=O)N1C[C@H](O)C[C@H]1C(=O)N[C@@H](CCCNC(=N)N)C(=O)N1CCC[C@H]1C(=O)N[C@@H](CCCNC(=N)N)C(=O)N1CCC[C@H]1C(=O)N1CCC[C@H]1C(=O)N[C@@H](Cc1c[nH]cn1)C(=O)N1CCC[C@H]1C(=O)N[C@@H](CCCNC(=N)N)C(=O)N[C@@H](CC(C)C)C(=O)O ({Orn(α-tetramethylguanidino)}-NNRPVYI[Hyp]RPRPPHPRL-OH) | 0.08 (≈ 0.185 µg/mL) | 1 |
| CC[C@H](C)[C@H](NC(=O)[C@H](Cc1ccc(O)cc1)NC(=O)[C@@H](NC(=O)[C@@H]1C[C@@H](O)CN1C(=O)[C@H](CCCNC(=N)N)NC(=O)[C@H](CC(N)=O)NC(=O)[C@H](CC(N)=O)NC(=O)[C@H](CCCN)N=C(N(C)C)N(C)C)C(C)C)C(=O)N1CCC[C@H]1C(=O)N[C@@H](CCCNC(=N)N)C(=O)N1CCC[C@H]1C(=O)N[C@@H](CCCNC(=N)N)C(=O)N1CCC[C@H]1C(=O)N1CCC[C@H]1C(=O)N[C@@H](Cc1c[nH]cn1)C(=O)N1CCC[C@H]1C(=O)N[C@@H](CCCNC(=N)N)C(=O)N[C@@H](CC(C)C)C(=O)O ({Orn(α-tetramethylguanidino)}-NNR[Hyp]VYIPRPRPPHPRL-OH) | 0.08 (≈ 0.185 µg/mL) | 1 |
| CC[C@H](C)[C@H](NC(=O)[C@H](Cc1ccc(O)cc1)NC(=O)[C@@H](NC(=O)[C@@H]1CCCN1C(=O)[C@H](CCCNC(=N)N)NC(=O)[C@H](CC(N)=O)NC(=O)[C@H](CC(N)=O)NC(=O)[C@H](CCCN)N=C(N(C)C)N(C)C)C(C)C)C(=O)N1CCC[C@H]1C(=O)N[C@@H](CCCNC(=N)N)C(=O)N1CCC[C@H]1C(=O)N[C@@H](CCCNC(=N)N)C(=O)N1CCC[C@H]1C(=O)N1CCC[C@H]1C(=O)N[C@@H](Cc1c[nH]cn1)C(=O)N1C[C@H](O)C[C@H]1C(=O)N[C@@H](CCCNC(=N)N)C(=O)N[C@@H](CC(C)C)C(=O)O ({Orn(α-tetramethylguanidino)}-NNRPVYIPRPRPPH[Hyp]RL-OH) | 0.3 (≈ 0.692 µg/mL) | 2 |
| CC[C@H](C)[C@H](NC(=O)[C@H](Cc1ccc(O)cc1)NC(=O)[C@@H](NC(=O)[C@@H]1CCCN1C(=O)[C@H](CCCNC(=N)N)NC(=O)[C@H](CC(N)=O)NC(=O)[C@H](CC(N)=O)NC(=O)[C@H](CCCN)N=C(N(C)C)N(C)C)C(C)C)C(=O)N1CCC[C@H]1C(=O)N[C@@H](CCCNC(=N)N)C(=O)N1CCC[C@H]1C(=O)N[C@@H](CCCNC(=N)N)C(=O)N1CCC[C@H]1C(=O)N1CCC[C@H]1C(=O)N[C@@H](Cc1c[nH]cn1)C(=O)N1CCC[C@H]1C(=O)N[C@@H](CCCNC(=N)N)C(=O)N[C@H](CO)CC(C)C ({Orn(α-tetramethylguanidino)}-NNRPVYIPRPRPPHPR[Leu(ol)]) | 5 (≈ 11.4 µg/mL) | 32 |
| CC[C@H](C)[C@H](NC(=O)[C@H](Cc1ccc(O)cc1)NC(=O)[C@@H](NC(=O)[C@@H]1CCCN1C(=O)[C@H](CCCNC(=N)N)NC(=O)[C@H](CC(N)=O)NC(=O)[C@H](CC(N)=O)NC(=O)[C@H](CCCN)N=C(N(C)C)N(C)C)C(C)C)C(=O)N1CCC[C@H]1C(=O)N[C@@H](CCCNC(=N)N)C(=O)N1CCC[C@H]1C(=O)N[C@@H](CCCNC(=N)N)C(=O)N1CCC[C@H]1C(=O)N1CCC[C@H]1C(=O)N[C@@H](Cc1c[nH]cn1)C(=O)N1CCC[C@H]1C(=O)N[C@@H](CCCNC(=N)N)C(=O)N[C@@H](CO)Cc1ccccc1 | 40 (≈ 92.5 µg/mL) | 800 |
| CC[C@H](C)[C@H](NC(=O)[C@H](Cc1ccc(O)cc1)NC(=O)[C@@H](NC(=O)[C@@H]1CCCN1C(=O)[C@H](CCCNC(=N)N)NC(=O)[C@H](CC(N)=O)NC(=O)[C@H](CC(N)=O)NC(=O)[C@H](CCCN)N=C(N(C)C)N(C)C)C(C)C)C(=O)N1CCC[C@H]1C(=O)N[C@@H](CCCNC(=N)N)C(=O)N1CCC[C@H]1C(=O)N[C@@H](CCCNC(=N)N)C(=O)N1CCC[C@H]1C(=O)N1CCC[C@H]1C(=O)N[C@@H](Cc1c[nH]cn1)C(=O)N1CCC[C@H]1C(=O)N[C@@H](CCCCNC(=N)N)C(=O)N[C@@H](CC(C)C)C(=O)O ({Orn(α-tetramethylguanidino)}-NNRPVYIPRPRPPHP[hArg]L-OH) | 2.5 (≈ 5.76 µg/mL) | 16 |
| CC[C@H](C)[C@H](NC(=O)[C@H](Cc1ccc(O)cc1)NC(=O)[C@@H](NC(=O)[C@@H]1CCCN1C(=O)[C@H](CCCNC(=N)N)NC(=O)[C@H](CC(N)=O)NC(=O)[C@H](CC(N)=O)NC(=O)[C@H](CCCN)N=C(N(C)C)N(C)C)C(C)C)C(=O)N1CCC[C@H]1C(=O)N[C@@H](CCCNC(=N)N)C(=O)N1CCC[C@H]1C(=O)N[C@@H](CCCNC(=N)N)C(=O)N1CCC[C@H]1C(=O)N1C[C@H](O)C[C@H]1C(=O)N[C@@H](Cc1c[nH]cn1)C(=O)N1CCC[C@H]1C(=O)N[C@@H](CCCNC(=N)N)C(=O)N[C@@H](CC(C)C)C(=O)O ({Orn(α-tetramethylguanidino)}-NNRPVYIPRPRP[Hyp]HPRL-OH) | 0.6 (≈ 1.38 µg/mL) | 2 |
| CC[C@H](C)[C@H](NC(=O)[C@H](Cc1ccc(O)cc1)NC(=O)[C@@H](NC(=O)[C@@H]1CCCN1C(=O)[C@H](CCCNC(=N)N)NC(=O)[C@H](CC(N)=O)NC(=O)[C@H](CC(N)=O)NC(=O)[C@H](CCCN)N=C(N(C)C)N(C)C)C(C)C)C(=O)N1CCC[C@H]1C(=O)N[C@@H](CCCNC(=N)N)C(=O)N1CCC[C@H]1C(=O)N[C@@H](CCCNC(=N)N)C(=O)N1CCC[C@H]1C(=S)N1CCC[C@H]1C(=O)N[C@@H](Cc1c[nH]cn1)C(=O)N1CCC[C@H]1C(=O)N[C@@H](CCCNC(=N)N)C(=O)N[C@@H](CC(C)C)C(=O)O ({Orn(α-tetramethylguanidino)}-NNRPVYIPRPR[X3]HPRL-OH) | 0.62 (≈ 1.43 µg/mL) | 4 |
| CC[C@H](C)[C@H](NC(=O)[C@H](CC1CCCCC1)NC(=O)[C@@H](NC(=O)[C@@H]1CCCN1C(=O)[C@H](CCCNC(=N)N)NC(=O)[C@H](CC(N)=O)NC(=O)[C@H](CC(N)=O)NC(=O)[C@H](CCCN)N=C(N(C)C)N(C)C)C(C)C)C(=O)N1CCC[C@H]1C(=O)N[C@@H](CCCNC(=N)N)C(=O)N1CCC[C@H]1C(=O)N[C@@H](CCCNC(=N)N)C(=O)N1CCC[C@H]1C(=O)N1CCC[C@H]1C(=O)N[C@@H](Cc1c[nH]cn1)C(=O)N1CCC[C@H]1C(=O)N[C@@H](CCCNC(=N)N)C(=O)N[C@@H](CC(C)C)C(=O)O ({Orn(α-tetramethylguanidino)}-NNRPV[Cha]IPRPRPPHPRL-OH) | 0.75 (≈ 1.71 µg/mL) | 2 |
| CC[C@H](C)[C@H](NC(=O)[C@H](Cc1ccc(O)cc1)NC(=O)[C@@H](NC(=O)[C@@H]1CCCN1C(=O)[C@H](CCCNC(=N)N)NC(=O)[C@H](CC(N)=O)NC(=O)[C@H](CC(N)=O)NC(=O)[C@H](CCCN)N=C(N(C)C)N(C)C)C(C)C)C(=O)N1CCC[C@H]1C(=O)N[C@@H](CCCNC(=N)N)C(=O)N1C[C@H](O)C[C@H]1C(=O)N[C@@H](CCCNC(=N)N)C(=O)N1CCC[C@H]1C(=O)N1CCC[C@H]1C(=O)N[C@@H](Cc1c[nH]cn1)C(=O)N1CCC[C@H]1C(=O)N[C@@H](CCCNC(=N)N)C(=O)N[C@@H](CC(C)C)C(=O)O ({Orn(α-tetramethylguanidino)}-NNRPVYIPR[Hyp]RPPHPRL-OH) | 1.2 (≈ 2.77 µg/mL) | 4 |
| CC[C@H](C)[C@H](NC(=O)[C@H](Cc1ccc(O)cc1)NC(=O)[C@@H](NC(=O)[C@@H]1CCCN1C(=O)[C@H](CCCNC(=N)N)NC(=O)[C@H](CC(N)=O)NC(=O)[C@H](CC(N)=O)NC(=O)[C@H](CCCN)N=C(N(C)C)N(C)C)C(C)C)C(=O)N1CCC[C@H]1C(=O)N[C@@H](CCCNC(=N)N)C(=O)N1CCC[C@H]1C(=O)N[C@@H](CCCNC(=N)N)C(=O)N1CCC[C@H]1C(=O)N1CCC[C@H]1C(=O)N[C@@H](Cc1c[nH]cn1)C(=O)N1CCC[C@H]1C(=O)N[C@@H](CCCNC(=N)N)C(=O)N[C@H](CO)Cc1ccccc1 | 5 (≈ 11.6 µg/mL) | 32 |
| CC[C@H](C)[C@H](NC(=O)[C@H](Cc1ccc(OC)cc1)NC(=O)[C@@H](NC(=O)[C@@H]1CCCN1C(=O)[C@H](CCCNC(=N)N)NC(=O)[C@H](CC(N)=O)NC(=O)[C@H](CC(N)=O)NC(=O)[C@H](CCCN)N=C(N(C)C)N(C)C)C(C)C)C(=O)N1CCC[C@H]1C(=O)N[C@@H](CCCNC(=N)N)C(=O)N1CCC[C@H]1C(=O)N[C@@H](CCCNC(=N)N)C(=O)N1CCC[C@H]1C(=O)N1CCC[C@H]1C(=O)N[C@@H](Cc1c[nH]cn1)C(=O)N1CCC[C@H]1C(=O)N[C@@H](CCCNC(=N)N)C(=O)N[C@@H](CC(C)C)C(=O)O ({Orn(α-tetramethylguanidino)}-NNRPVY(Me)IPRPRPPHPRL-OH) | 1.5 (≈ 3.46 µg/mL) | 4 |
| CC[C@H](C)[C@H](NC(=O)[C@H](Cc1ccc(O)cc1)NC(=O)[C@@H](NC(=O)[C@@H]1CCCN1C(=O)[C@H](CCCNC(=N)N)NC(=O)[C@H](CC(N)=O)NC(=O)[C@H](CC(N)=O)NC(=O)[C@H](CCCN)N=C(N(C)C)N(C)C)C(C)C)C(=O)N1CCC[C@H]1C(=O)N[C@@H](CCCNC(=N)N)C(=O)N1CCC[C@H]1C(=O)N[C@@H](CCCNC(=N)N)C(=O)N1CCC[C@H]1C(=O)N1CCC[C@H]1C(=O)N[C@@H](Cc1c[nH]cn1)C(=O)N1CCC[C@H]1C(=O)N[C@@H](CCCNC(N)=O)C(=O)N[C@@H](CC(C)C)C(=O)O ({Orn(α-tetramethylguanidino)}-NNRPVYIPRPRPPHP[Cit]L-OH) | 20 (≈ 45.9 µg/mL) | 128 |

From ChEMBL document CHEMBL5321283, “Structure-Activity Relationships of the Antimicrobial Peptide Natural Product Apidaecin” (J Med Chem, 2023)
